Test results from patent US11884649B2, “IRE1α inhibitors and uses thereof” (The Regents of the University of California, priority 2020, dated 2024).

Experiments:
Assay type in all cases: cell-based, rat
[1] = system: RIDD (IRE1α-dependent mRNA decay); assay: RIDD (Blos1 mRNA) in ER-stressed INS-1 cells; conditions: 2 mM DTT, 20 μM compound
Experimental: (§1) RNA Isolation, Quantitative Real-Time PCR, and Primers
INS-1 or isogenic IRE1α-overexpressing INS-1 cells were plated onto Poly-D-Lysine coated tissue culture plate and grown for 48 hrs. Inhibitors or DMSO were added to the media and incubated for 1 hour at 37° C. with 5% CO2 prior to addition of ER stress agents or Dox as indicated. RNA was isolated from whole cells using either QIAGEN RNeasy Mini kits or Trizol (Invitrogen) and reverse transcribed as above to obtain total cDNA. Then, XBP-1 primers were used to amplify an XBP-1 amplicon spanning the 26 nt intron from the cDNA samples in a regular 3-step PCR. Thermal cycles were: 5 min at 95° C., 30 cycles of 30 s at 95° C., 30 s at 60° C., and 1 min at 72° C., followed by 72° C. for 15 min, and hold at 4° C. Primers used for XBP-1 mRNA splicing were as follows: sense primer XBP1.3 S (5′ […]-3′ (SEQ ID NO:2)) and antisense primer XBP1.2AS (5′-[…]-3′ (SEQ ID NO:3)). PCR fragments were then digested by PstI, resolved on 3% agarose gels, stained with EtBr and quantified by densitometry using ImageJ (NIH). For standard mRNA detection, generally […] total RNA was reverse transcribed using the QuantiTect Reverse Transcription Kit (QIAGEN). For qPCR, we used SYBR green (QIAGEN) and StepOnePlus Real-Time PCR System (Applied Biosystems). Thermal cycles were: 5 min at 95° C., 40 cycles of 15 sec at 95° C., 30 sec at 60° C. […]

[2] = system: INS-1 cells expressing IRE1α under Dox control; assay: RNA-Seq profiling of INS-1 cells conditionally overexpressing IRE1α; conditions: 20 μM, 5 ng/mL Dox
Experimental: Next, to systematically compare the transcriptomic effects of PAIR1 and KIRA9, we profiled INS-1 cells that conditionally overexpress IRE1α by RNA Seq. As above (FIGS. 4A-4K), IRE1α overexpression was induced with doxycycline (Dox) and cells were treated with either DMSO, or equivalent concentrations of PAIR1 or KIRA9. Total RNA was submitted for sequencing across entire transcripts. The dense coverage of this dataset enabled us to distinguish the endogenous rat IRE1α expression from the induced mouse IRE1α transgene; there was greater than 10-fold induction of transgene expression with doxycycline (FIG. 22). Dense coverage across the Xbp1 locus also enabled quantification of XBP1 splicing based on the reduced density of reads mapping to the noncanonical XBP1 intron. Consistent with measurements of XBP1 splicing by isoform-specific PCR (FIG. 4C), overexpression induced XBP1 splicing was preserved in both DMSO and PAIR1-treated cells, but blocked in KIRA9-treated cells at 4 hours (FIGS. 23A-23B).
RNA Isolation and Preparation
Isogenic IRE1α-overexpressing INS-1 cells were pre-treated with inhibitors for 1 h followed by addition of Dox 5 ng/mL for 4 h and 24 h as indicated. All conditions for RNAseq analysis were performed in three biological replicates. RNA was isolated from whole cells using Qiagen RNeasy with gDNA eliminator kit. RNA purity was determined using a NanaPhotometer spectrometer (IMPLEN, CA, USA). RNA integrity and quantitation were assessed using the RNA Nano 6000 Assay Kit of the Bioanalyzer 2100 system (Agilent Technologies, CA, USA).
Quantification of Gene Expression Level
HTSeq v0.6.1 was used to count the reads numbers mapped to each gene. And then FPKM of each gene was calculated based on the length of the gene and reads count mapped to this gene.
Differential Expression Analysis
Differential expression analysis of two conditions/groups (three biological replicates per condition) was performed using the DESeq R package (1.18.0). DESeq provide statistical routines for determining differential expression in digital gene expression data using a model based on the negative binomial distribution. The resulting P-values were adjusted using the Benjamini and Hochberg's approach for controlling the false discovery rate. Genes with an adjusted P-value<0.05 found by DESeq were assigned as differentially expressed.

XBP1 mRNA splicing = XBP1 mRNA splicing in INS-1 cells conditionally overexpressing IRE1α (Dox); conditions: 5 ng/mL Dox; 20 μM for XBP1s immunoblot
Experimental: as §1
INS-1 or isogenic IRE1α-overexpressing INS-1 cells were plated onto Poly-D-Lysine coated tissue culture plate and grown for 48 hrs. Inhibitors or DMSO were added to the media and incubated for 1 hour at 37° C. with 5% CO2 prior to addition of ER stress agents or Dox as indicated. RNA was isolated from whole cells using either QIAGEN RNeasy Mini kits or Trizol (Invitrogen) and reverse transcribed as above to obtain total cDNA. Then, XBP-1 primers were used to amplify an XBP-1 amplicon spanning the 26 nt intron from the cDNA samples in a regular 3-step PCR. Thermal cycles were: 5 min at 95° C., 30 cycles of 30 s at 95° C., 30 s at 60° C., and 1 min at 72° C., followed by 72° C. for 15 min, and hold at 4° C. Primers used for XBP-1 mRNA splicing were as follows: sense primer XBP1.3 S (5′ […]-3′ (SEQ ID NO:2)) and antisense primer XBP1.2AS (5′-[…]-3′ (SEQ ID NO:3)). PCR fragments were then digested by PstI, resolved on 3% agarose gels, stained with EtBr and quantified by densitometry using ImageJ (NIH). For standard mRNA detection, generally […] total RNA was reverse transcribed using the QuantiTect Reverse Transcription Kit (QIAGEN). For qPCR, we used SYBR green (QIAGEN) and StepOnePlus Real-Time PCR System (Applied Biosystems). Thermal cycles were: 5 min at 95° C., 40 cycles of 15 sec at 95° C., 30 sec at 60° C. Gene expression levels were normalized to Beta Actin. Primers used for qPCR of RIDD targets were as follows: Beta Actin Fwd: 5′-[…]-3′ (SEQ ID NO:4), Beta Actin Rev: 5′-[…]-3′ (SEQ ID NO:5), Insulin 1 Fwd: 5′-GTCCTCTGGGAGCCCAAG-3′ (SEQ ID NO:6), Insulin 1 Rev: 5′-ACAGAGCCTCCACCAGG-3′ (SEQ ID NO:7), Insulin 2 Fwd: 5′-ATCCTCTGGGAGCCCCGC-3′ (SEQ ID NO:8), Insulin 2 Rev: 5′-AGAGAGCTTCCACCAAG-3′ (SEQ ID NO:9), Blos1 Fwd: 5′-[…]-3′ (SEQ ID NO:10), and Blos1 Rev: 5′-[…]-3′ (SEQ ID NO:11).
(§2) RNA was extracted using Trizol (Invitrogen), DNaseI treated, and cDNA products encompassing the intron amplified by QuantiTect Reverse Transcription Kit (Qiagen). sense Primer rXBP Forward (5′-[…]-3′ (SEQ ID NO:12)) and antisense primer rXBP Reverse (5′-[…]-3′ (SEQ ID NO:13)) were used. PCR fragments were digested by PstI, resolved on 3% agarose gels, stained with EtBr, and quantified by densitometry.
as §2, with “XBP1 splicing for FIGS. 33A-33F: RNA” for “RNA”, “(Invitrogen),” for “(Invitrogen), DNaseI treated, and”, “(Qiagen). Sense” for “(Qiagen). sense”, “rXBP splicing” for “rXBP”

SMILES	RIDD (Blos1 mRNA) [1]	TXNIP upregulation [2]	downregulation of RIDD genes [2]	global decrease of secretome transcripts [2]	upregulation of apoptosis genes [2]	XBP1 splicing (read coverage) ([2]; 4 hours)	XBP1 splicing (read coverage) ([2]; 24 hours)	XBP1 mRNA splicing and expression of Xbp1s (XBP1 mRNA splicing)
O=S(=O)(CC(F)(F)F)Nc1ccc(Oc2ncccc2-c2ccnc(N[C@H]3CCCNC3)n2)c2ccccc12 (stereo in doubt) [PAIR1, 2,2,2-trifluoro-N-(4-(3-(2-(piperidin-3-ylamino)pyrimidin-4-yl)pyridin-2-yloxy)naphthalen-1-yl)ethanesulfonamide]	equivalently blunt RIDD	blocked	antagonized	blocked	largely blunted	preserved	preserved	largely preserved
O=S(=O)(CCC(F)(F)F)Nc1ccc(Oc2ncccc2-c2ccnc(NC3CCCNC3)n2)c2ccccc12 (stereo not shown) [KIRA9, 3,3,3-trifluoro-N-(4-(3-(2-(piperidin-3-ylamino)pyrimidin-4-yl)pyridin-2-yloxy)naphthalen-1-yl)propane-1-sulfonamide]	equivalently blunt RIDD	blocked	antagonized	blocked	largely blunted	blocked	partially decreased	more vigorously inhibited these outputs
